In the assay the target is hENPP2 (Homo sapiens, UniProt Q13822). Kind of assay: Human ENPP2 (hENPP2) biochemical assay using LPC as substrate. The conditions noted are these: 150 µM LPC (palmitoyl 16:0), 37°C for 30 min. Summed up: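 IC50 came from compound series (top 50 µM, 1/3 steps) incubated 30 min at 37°C with 1 or 3 µg/mL final enzyme and palmitoyl LPC added at 150 µM, pH 8.5 Tris buffer with Ca2+. Choline output measured as quinoneimine dye at 555 nm via coupled oxidase/HRP/TOOS detection.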
The term IC50 denotes the point on the concentration scale where inhibition reaches its midpoint. The compound `COc1cc(C)cc(Nc2ncc3c(n2)CN([C@H]2CCN(C(=O)c4cc5nn[nH]c5cc4C)[C@H](C)C2)C3)c1` [compound 185, [(2R,4S)-4-[2-(3-methoxy-5-methyl-anilino)-5,7-dihydropyrrolo[3,4-d]pyrimidin-6-yl]-2-methyl-1-piperidyl]-(6-methyl-1H-benzotriazol-5-yl)methanone] yielded an IC50 of 0.01 to 100 nM. In the case of `C[C@@H]1C[C@H](N2Cc3cnc(Nc4ccc(C(F)(F)F)cc4)nc3C2)CCN1C(=O)c1ccnc(NS(C)(=O)=O)c1` [compound 186, N-[4-[(2R,4R)-2-methyl-4-[2-[4-(trifluoromethyl)anilino]-5,7-dihydropyrrolo[3,4-d]pyrimidin-6-yl]piperidine-1-carbonyl]-2-pyridyl]methanesulfonamide] it was 0.01 to 100 nM; in that of `COc1cc(C)cc(Nc2ncc3c(n2)CN([C@@H]2CCN(C(=O)c4ccnc(NS(C)(=O)=O)c4)[C@H](C)C2)C3)c1` [compound 187, N-[4-[(2R,4R)-4-[2-(3-methoxy-5-methyl-anilino)-5,7-dihydropyrrolo[3,4-d]pyrimidin-6-yl]-2-methyl-piperidine-1-carbonyl]-2-pyridyl]methanesulfonamide], 0.01 to 100 nM. The compound `C[C@@H]1C[C@H](N2Cc3cnc(Nc4ccc(F)cc4)nc3C2)CCN1C(=O)c1ccnc(NS(C)(=O)=O)c1` [compound 188, N-[4-[(2R,4R)-4-[2-(4-fluoroanilino)-5,7-dihydropyrrolo[3,4-d]pyrimidin-6-yl]-2-methyl-piperidine-1-carbonyl]-2-pyridyl]methanesulfonamide] came in with an IC50 of 0.01 to 100 nM.

Turning to `COc1cccc(Nc2ncc3c(n2)CN([C@@H]2CCN(C(=O)c4ccnc(NS(C)(=O)=O)c4)[C@H](C)C2)C3)c1` [compound 189, N-[4-[(2R,4R)-4-[2-(3-methoxyanilino)-5,7-dihydropyrrolo[3,4-d]pyrimidin-6-yl]-2-methyl-piperidine-1-carbonyl]-2-pyridyl]methanesulfonamide], the IC50 was 0.01 to 100 nM.

In turn, `C[C@@H]1C[C@@H](N2Cc3cnc(Nc4ccc(C(F)(F)F)cc4)nc3C2)CCN1C(=O)c1ccnc(NS(C)(=O)=O)c1` [compound 190, N-[4-[(2R,4S)-2-methyl-4-[2-[4-(trifluoromethyl)anilino]-5,7-dihydropyrrolo[3,4-d]pyrimidin-6-yl]piperidine-1-carbonyl]-2-pyridyl]methanesulfonamide] displayed an IC50 of 0.01 to 100 nM.

`COc1cc(C)cc(Nc2ncc3c(n2)CN([C@H]2CCN(C(=O)c4ccnc(NS(C)(=O)=O)c4)[C@H](C)C2)C3)c1` [compound 191, N-[4-[(2R,4S)-4-[2-(3-methoxy-5-methyl-anilino)-5,7-dihydropyrrolo[3,4-d]pyrimidin-6-yl]-2-methyl-piperidine-1-carbonyl]-2-pyridyl]methanesulfonamide] yielded an IC50 of 100 to 500 nM.

Take `C[C@@H]1C[C@@H](N2Cc3cnc(Nc4ccc(F)cc4)nc3C2)CCN1C(=O)c1ccnc(NS(C)(=O)=O)c1` [compound 192, N-[4-[(2R,4S)-4-[2-(4-fluoroanilino)-5,7-dihydropyrrolo[3,4-d]pyrimidin-6-yl]-2-methyl-piperidine-1-carbonyl]-2-pyridyl]methanesulfonamide]: the IC50 was over 1000 nM.

Compound `COc1cccc(Nc2ncc3c(n2)CN([C@H]2CCN(C(=O)c4ccnc(NS(C)(=O)=O)c4)[C@H](C)C2)C3)c1` [compound 193, N-[4-[(2R,4S)-4-[2-(3-methoxyanilino)-5,7-dihydropyrrolo[3,4-d]pyrimidin-6-yl]-2-methyl-piperidine-1-carbonyl]-2-pyridyl]methanesulfonamide] registered an IC50 of over 1000 nM. In the case of `Cc1cc(C)cc(Nc2ncc3c(n2)CN(C2(C)CCN(C(=O)c4cc5nn[nH]c5cc4F)CC2)C3)c1` [compound 194, [4-[2-(3,5-dimethylanilino)-5,7-dihydropyrrolo[3,4-d]pyrimidin-6-yl]-4-methyl-1-piperidyl]-(6-fluoro-1H-benzotriazol-5-yl)methanone] it was over 1000 nM.

The compound `C[C@@H]1C[C@H](N2Cc3cnc(Nc4ccc(S(F)(F)(F)(F)F)cc4)nc3C2)CCN1C(=O)c1cc2nn[nH]c2cc1F` [compound 195, (6-fluoro-1H-benzotriazol-5-yl)-[(2R,4R)-2-methyl-4-[2-[4-(pentafluoro-λ^6-sulfanyl)anilino]-5,7-dihydropyrrolo[3,4-d]pyrimidin-6-yl]-1-piperidyl]methanone] yielded an IC50 of 0.01 to 100 nM. Compound `C[C@@H]1C[C@@H](N2Cc3cnc(Nc4ccc(S(F)(F)(F)(F)F)cc4)nc3C2)CCN1C(=O)c1cc2nn[nH]c2cc1F` [compound 196, (6-fluoro-1H-benzotriazol-5-yl)-[(2R,4S)-2-methyl-4-[2-[4-(pentafluoro-λ^6-sulfanyl)anilino] -5,7-dihydropyrrolo[3,4-d]pyrimidin-6-yl]-1-piperidyl]methanone] had an IC50 of 0.01 to 100 nM. In the case of `COc1cc(F)cc(Nc2ncc3c(n2)CN([C@@H]2CCN(C(=O)c4cc5nn[nH]c5cc4F)[C@H](C)C2)C3)c1` [compound 197, (6-fluoro-1H-benzotriazol-5-yl)-[(2R,4R)-4-[2-(3-fluoro-5-methoxy-anilino)-5,7-dihydropyrrolo[3,4-d]pyrimidin-6-yl]-2-methyl-1-piperidyl] methanone] it was 0.01 to 100 nM; in that of `Cc1cc(C)cc(Nc2ncc3c(n2)CN([C@@H]2CCN(C(=O)c4ccnc(N)c4)[C@H](C)C2)C3)c1` [compound 198, (2-amino-4-pyridyl)-[(2R,4R)-4-[2-(3,5-dimethylanilino)-5,7-dihydropyrrolo[3,4-d]pyrimidin-6-yl]-2-methyl-1-piperidyl]methanone], over 1000 nM; in that of `Cc1cc(C)cc(Nc2ncc3c(n2)CCN(C2CCN(C(=O)C4CCN(c5cc6nn[nH]c6cc5C)CC4)CC2)C3)c1` [compound 199, [4-[2-(3,5-dimethylanilino)-7,8-dihydro-5H-pyrido[4,3-d]pyrimidin-6-yl]-1-piperidyl]-[1-(6-methyl-1H-benzotriazol-5-yl)-4-piperidyl]methanone], over 1000 nM.

`COc1cc(Nc2ncc3c(n2)CN([C@@H]2CCN(C(=O)c4ccnc(NS(C)(=O)=O)c4)[C@H](C)C2)C3)cc(OC)c1` [compound 200, N-[4-[(2R,4R)-4-[2-(3,5-dimethoxyanilino)-5,7-dihydropyrrolo[3,4-d]pyrimidin-6-yl]-2-methyl-piperidine-1-carbonyl]-2-pyridyl]methanesulfonamide] returned an IC50 of 0.01 to 100 nM. In the case of `CS(=O)(=O)Nc1cc(C(=O)N2CCC(N3Cc4cnc(Nc5ccc(C(F)(F)F)cc5)nc4C3)CC2)ccn1` [compound 201, N-[4-[4-[2-[4-(trifluoromethyl)anilino]-5,7-dihydropyrrolo[3,4-d]pyrimidin-6-yl]piperidine-1-carbonyl]-2-pyridyl]methanesulfonamide] it was 0.01 to 100 nM; in that of `Cc1cc(C)cc(Nc2ncc3c(n2)CN(C2CCN(C(=O)c4ccnc(NS(C)(=O)=O)c4)CC2)C3)c1` [compound 202, N-[4-[4-[2-(3,5-dimethylanilino)-5,7-dihydropyrrolo[3,4-d]pyrimidin-6-yl]piperidine-1-carbonyl]-2-pyridyl]methanesulfonamide], 0.01 to 100 nM. In the case of `Cc1cccc(Nc2ncc3c(n2)CN([C@@H]2CCN(C(=O)c4ccnc(NS(C)(=O)=O)c4)[C@H](C)C2)C3)c1` [compound 203, N-[4-[(2R,4R)-2-methyl-4-[2-(3-methylanilino)-5,7-dihydropyrrolo[3,4-d]pyrimidin-6-yl]piperidine-1-carbonyl]-2-pyridyl]methanesulfonamide] it was 0.01 to 100 nM. As to `COc1cc(F)cc(Nc2ncc3c(n2)CN([C@@H]2CCN(C(=O)c4ccnc(NS(C)(=O)=O)c4)[C@H](C)C2)C3)c1` [compound 204, N-[4-[(2R,4R)-4-[2-(3-fluoro-5-methoxy-anilino)-5,7-dihydropyrrolo[3,4-d]pyrimidin-6-yl] -2-methyl-piperidine-1-carbonyl]-2-pyridyl]methanesulfonamide], the IC50 was 100 to 500 nM. With `C[C@@H]1C[C@H](N2Cc3cnc(Nc4ccc(OC(F)(F)F)cc4)nc3C2)CCN1C(=O)c1ccnc(NS(C)(=O)=O)c1` [compound 205, N-[4-[(2R,4R)-2-methyl-4-[2-[4-(trifluoromethoxy)anilino]-5,7-dihydropyrrolo[3,4-d]pyrimidin-6-yl]piperidine-1-carbonyl]-2-pyridyl]methanesulfonamide], the IC50 lay within 0.01 to 100 nM. The same measure for `Cc1cc(C)cc(Nc2ncc3c(n2)CN([C@@H]2CCN(C(=O)c4cccc(NS(C)(=O)=O)c4)[C@H](C)C2)C3)c1` [compound 206, N-[3-[(2R,4R)-4-[2-(3,5-dimethylanilino)-5,7-dihydropyrrolo[3,4-d]pyrimidin-6-yl]-2-methyl-piperidine-1-carbonyl]phenyl]methanesulfonamide]: over 1000 nM; for `Cc1cc(Nc2ncc3c(n2)CN([C@@H]2CCN(C(=O)c4ccnc(NS(C)(=O)=O)c4)[C@H](C)C2)C3)ccc1F` [compound 207, N-[4-[(2R,4R)-4-[2-(4-fluoro-3-methyl-anilino)-5,7-dihydropyrrolo[3,4-d]pyrimidin-6-yl]-2-methyl-piperidine-1-carbonyl]-2-pyridyl]methanesulfonamide]: 0.01 to 100 nM; for `Cc1cc(C)cc(Nc2ncc3c(n2)CN([C@@H]2CCN(C(=O)c4cc(NS(C)(=O)=O)ncc4F)[C@H](C)C2)C3)c1` [compound 208, N-[4-[(2R,4R)-4-[2-(3,5-dimethylanilino)-5,7-dihydropyrrolo[3,4-d]pyrimidin-6-yl]-2-methyl-piperidine-1-carbonyl]-5-fluoro-2-pyridyl]methanesulfonamide]: 0.01 to 100 nM. The same measure for `CC(=O)Nc1cc(C(=O)N2CC[C@@H](N3Cc4cnc(Nc5cc(C)cc(C)c5)nc4C3)C[C@H]2C)ccn1` [compound 209, N-[4-[(2R,4R)-4-[2-(3,5-dimethylanilino)-5,7-dihydropyrrolo[3,4-d]pyrimidin-6-yl]-2-methyl-piperidine-1-carbonyl]-2-pyridyl]acetamide]: 500 to 1000 nM.

The values are drawn from patent publication EP3782997A1, “FUSED PYRIMIDINE COMPOUNDS AND PHARMACEUTICAL COMPOSITIONS THEREOF FOR THE TREATMENT OF FIBROTIC DISEASES” (Galapagos N.V., priority 2019, dated 2021).
